Data taken from ChEMBL document CHEMBL3112509, “Synthesis and antimicrobial activity of (1,4-phenylene)bis(arylsulfonylpyrazoles and isoxazoles)” (2014).
The source made the active and inactive calls. No cut-off for these calls is given here.

Experiments:
Assay type in all cases: functional
Aspergillus niger [1] = assay: Antifungal activity against Aspergillus niger at 100 ug/well after 48 hrs by agar well diffusion method; details: read-out: DIZ
Klebsiella pneumoniae [2] = assay: Antibacterial activity against Klebsiella pneumoniae at 50 ug/well after 24 hrs by agar well diffusion method; details: for zone of inhibition at 50 µg/disc: read-out: DIZ
Bacillus subtilis [3] = assay: Antibacterial activity against Bacillus subtilis at 50 ug/well after 24 hrs by agar well diffusion method; details: for zone of inhibition at 50 µg/disc: read-out: DIZ
Penicillium chrysogenum [4] = assay: Antifungal activity against Penicillium chrysogenum at 50 ug/well after 48 hrs by agar well diffusion method; details: read-out: DIZ
Staphylococcus aureus [5] = assay: Antibacterial activity against Staphylococcus aureus at 100 ug/well after 24 hrs by agar well diffusion method; details: for zone of inhibition at 100 µg/disc: read-out: DIZ
Staphylococcus aureus [6] = assay: Antibacterial activity against Staphylococcus aureus at 50 ug/well after 24 hrs by agar well diffusion method; details: for zone of inhibition at 50 µg/disc: read-out: DIZ
Pseudomonas aeruginosa [7] = assay: Antibacterial activity against Pseudomonas aeruginosa at 50 ug/well after 24 hrs by agar well diffusion method; details: for zone of inhibition at 50 µg/disc: read-out: DIZ
Bacillus subtilis [8] = assay: Antibacterial activity against Bacillus subtilis at 100 ug/well after 24 hrs by agar well diffusion method; details: for zone of inhibition at 100 µg/disc: read-out: DIZ
Aspergillus niger [9] = assay: Antifungal activity against Aspergillus niger at 50 ug/well after 48 hrs by agar well diffusion method; details: read-out: DIZ
Pseudomonas aeruginosa [10] = assay: Antibacterial activity against Pseudomonas aeruginosa at 100 ug/well after 24 hrs by agar well diffusion method; details: for zone of inhibition at 100 µg/disc: read-out: DIZ
Penicillium chrysogenum [11] = assay: Antifungal activity against Penicillium chrysogenum at 100 ug/well after 48 hrs by agar well diffusion method; details: read-out: DIZ
Klebsiella pneumoniae [12] = assay: Antibacterial activity against Klebsiella pneumoniae at 100 ug/well after 24 hrs by agar well diffusion method; details: for zone of inhibition at 100 µg/disc: read-out: DIZ

| Structure (SMILES) | zone of inhibition at 100 µg/disc (Aspergillus niger [1]) [mm] | zone of inhibition at 50 µg/disc (Klebsiella pneumoniae [2]) [mm] | zone of inhibition at 50 µg/disc (Bacillus subtilis [3]) [mm] | zone of inhibition at 50 µg/disc (Penicillium chrysogenum [4]) [mm] | zone of inhibition at 100 µg/disc (Staphylococcus aureus [5]) [mm] | zone of inhibition at 50 µg/disc (Staphylococcus aureus [6]) [mm] | zone of inhibition at 50 µg/disc (Pseudomonas aeruginosa [7]) [mm] | zone of inhibition at 100 µg/disc (Bacillus subtilis [8]) [mm] | zone of inhibition at 50 µg/disc (Aspergillus niger [9]) [mm] | zone of inhibition at 100 µg/disc (Pseudomonas aeruginosa [10]) [mm] | zone of inhibition at 100 µg/disc (Penicillium chrysogenum [11]) [mm] | zone of inhibition at 100 µg/disc (Klebsiella pneumoniae [12]) [mm] | diameter of the inhibition zone (DIZ) (Pseudomonas aeruginosa [7]) | diameter of the inhibition zone (DIZ) (Pseudomonas aeruginosa [10]) | diameter of the inhibition zone (DIZ) (Klebsiella pneumoniae [2]) | diameter of the inhibition zone (DIZ) (Bacillus subtilis [3]) | diameter of the inhibition zone (DIZ) (Staphylococcus aureus [5]) | diameter of the inhibition zone (DIZ) (Staphylococcus aureus [6]) | diameter of the inhibition zone (DIZ) (Bacillus subtilis [8]) | diameter of the inhibition zone (DIZ) (Klebsiella pneumoniae [12]) |
| --- | --- | --- | --- | --- | --- | --- | --- | --- | --- | --- | --- | --- | --- | --- | --- | --- | --- | --- | --- | --- |
| O=S(=O)(c1ccccc1)C1C(c2ccc(Cl)cc2)=NOC1c1ccc(C2ON=C(c3ccc(Cl)cc3)C2S(=O)(=O)c2ccccc2)cc1 (stereo unspecified) | 17 | 11 | 18 | 20 | 16 | 14 | 10 | 20 | 15 | 12 | 22 | 13 |  |  |  |  |  |  |  |  |
| COc1ccc(-c2nn(-c3ccccc3)c(-c3ccc(-c4c(S(=O)(=O)c5ccccc5)c(-c5ccc(OC)cc5)nn4-c4ccccc4)cc3)c2S(=O)(=O)c2ccccc2)cc1 | 22 | 15 | 20 | 23 | 19 | 17 | 12 | 24 | 20 | 14 | 25 | 16 |  |  |  |  |  |  |  |  |
| COc1ccc(-c2nn(-c3ccccc3)c(-c3ccc(-c4c(S(=O)(=O)c5ccc(Cl)cc5)c(-c5ccc(OC)cc5)nn4-c4ccccc4)cc3)c2S(=O)(=O)c2ccc(Cl)cc2)cc1 | 27 | 15 | 23 | 24 | 20 | 18 | 14 | 25 | 25 | 16 | 26 | 17 |  |  |  |  |  |  |  |  |
| O=S(=O)(c1ccc(Cl)cc1)C1C(c2ccc(Cl)cc2)=NOC1c1ccc(C2ON=C(c3ccc(Cl)cc3)C2S(=O)(=O)c2ccc(Cl)cc2)cc1 (stereo unspecified) | 20 | 12 | 19 | 21 | 16 | 14 | 11 | 21 | 18 | 13 | 23 | 14 |  |  |  |  |  |  |  |  |
| O=S(=O)(c1ccc(Cl)cc1)C1C(c2ccc(Cl)cc2)=NN(c2ccccc2)C1c1ccc(C2C(S(=O)(=O)c3ccc(Cl)cc3)C(c3ccc(Cl)cc3)=NN2c2ccccc2)cc1 (stereo unspecified) | 15 | 10 | 13 | 18 | 14 | 11 |  | 16 | 13 |  | 20 | 13 | inactive | inactive |  |  |  |  |  |  |
| Cc1ccc(S(=O)(=O)C2C(c3ccc(Cl)cc3)=NOC2c2ccc(C3ON=C(c4ccc(Cl)cc4)C3S(=O)(=O)c3ccc(C)cc3)cc2)cc1 (stereo unspecified) | 17 | 10 | 16 | 17 | 15 | 12 |  | 18 | 15 |  | 21 | 12 | inactive | inactive |  |  |  |  |  |  |
| COc1ccc(C2=NN(c3ccccc3)C(c3ccc(C4C(S(=O)(=O)c5ccc(Cl)cc5)C(c5ccc(OC)cc5)=NN4c4ccccc4)cc3)C2S(=O)(=O)c2ccc(Cl)cc2)cc1 (stereo unspecified) | 11 |  |  | 15 |  |  |  |  | 10 |  | 17 |  | inactive | inactive | inactive | inactive | inactive | inactive | inactive | inactive |
| COc1ccc(C2=NOC(c3ccc(C4ON=C(c5ccc(OC)cc5)C4S(=O)(=O)c4ccc(C)cc4)cc3)C2S(=O)(=O)c2ccc(C)cc2)cc1 (stereo unspecified) | 19 |  |  | 15 |  |  |  |  | 16 |  | 18 |  | inactive | inactive | inactive | inactive | inactive | inactive | inactive | inactive |
